Drawing on article PMC11995724, “Antibiotic target discovery by integrated phenotypic and activity-based profiling of electrophilic fragments” (Cell chemical biology, 2025), this text covers viability for 38 compounds.

Molecules are shown by their SMILES. Where a name gives a salt, the structure may show the parent alone.

A short description of the data set: in vitro. Particulars: human, hek293t cells.
Turning to `CC(Cl)C(=O)N1CCN(Cc2ccc(C(F)(F)F)cc2)C(=O)C1` (centres unmarked) [6-N19, 4-(2-chloropropanoyl)-1-{[4-(trifluoromethyl)phenyl]methyl}piperazin-2-one], the viability at 48 h, 25 µM was determined as 99.6%. The value for `CC(Cl)C(=O)N1CCN(c2cc(-c3ccccc3F)n[nH]2)CC1` (centres unmarked) [6-N20, 2-chloro-1-{4-[3-(2-fluorophenyl)-1H-pyrazol-5-yl]piperazin-1-yl}propan-1-one] was 86.2%; that for `CC(Cl)C(=O)N1CCCC(c2nc(-c3cccc(F)c3)no2)C1` (centres unmarked) [6-N21, 2-chloro-1-{3-[3-(3-fluorophenyl)-1,2,4-oxadiazol-5-yl]piperidin-1-yl}propan-1-one] was 90.2%; that for `CC(Cl)C(=O)N(c1cccc(C#N)c1)C1CCC1` (centres unmarked) [6-N22, 2-chloro-N-(3-cyanophenyl)-N-cyclobutylpropanamide] was 90.1%. For `COc1ccc(S(N)(=O)=O)cc1NC(=O)CCl` [6-O03, 2-chloro-N-(2-methoxy-5-sulfamoylphenyl)acetamide] the value was 0.606%. The value for `COc1ccc(OC)c(NC(=O)CCl)c1` [6-O04, 2-chloro-N-(2,5-dimethoxyphenyl)acetamide] was 0.314%; that for `O=C(CCl)NCCCC1CCCCC1` [6-O05, 2-chloro-N-(3-cyclohexylpropyl)acetamide] was 45.7%; that for `CC1CCCCC1OCCNC(=O)CCl` (centres unmarked) [6-O06, 2-chloro-N-{2-[(2-methylcyclohexyl)oxy]ethyl}acetamide] was 112%. For the compound `Cc1cccc(N(Cc2ccccc2)C(=O)CCl)c1` [6-O07, N-benzyl-2-chloro-N-(3-methylphenyl)acetamide], the viability at 48 h, 25 µM worked out at 0.964%. The value for `O=C(CCl)Nc1ccnn1Cc1ccccc1Cl` [6-O08, 2-chloro-N-{1-[(2-chlorophenyl)methyl]-1H-pyrazol-5-yl}acetamide] was 0.422%. As for `CCOc1ccc(NC(=O)C(C)Cl)cc1` (centres unmarked) [6-O09, 2-chloro-N-(4-ethoxyphenyl)propanamide], the viability at 48 h, 25 µM came out at 89.5%. For `CCC(NC(=O)CCl)c1ccc(Cl)cc1` (centres unmarked) [6-O10, 2-chloro-N-[1-(4-chlorophenyl)propyl]acetamide] the value was 1.9%; for `O=C(O)C1CCN(C(=O)CCl)CC1` [6-O11, 1-(2-chloroacetyl)piperidine-4-carboxylic acid], 113%. `CS(=O)(=O)c1ccc(CNC(=O)CCl)cc1` [6-O12, 2-chloro-N-[(4-methanesulfonylphenyl)methyl]acetamide]: the viability at 48 h, 25 µM stood at 1.69%. Regarding `CC(Cl)C(=O)Nc1ccc(OCc2ccccc2)cc1` (centres unmarked) [6-O13, N-[4-(benzyloxy)phenyl]-2-chloropropanamide], the viability at 48 h, 25 µM was 99.7%. For `O=C(CCl)Nc1ccc(S(=O)(=O)c2ccc(F)cc2)cc1` [6-O14, 2-chloro-N-[4-(4-fluorobenzenesulfonyl)phenyl]acetamide] the value was 0.578%.

Take `CC(Cl)C(=O)NCc1cccc(Cn2cnc3ccccc32)c1` (centres unmarked) [6-O16, N-({3-[(1H-1,3-benzodiazol-1-yl)methyl]phenyl}methyl)-2-chloropropanamide]: the viability at 48 h, 25 µM stood at 116%.

In the case of `O=C(CCl)Nc1cccnn1` [6-O17, 2-chloro-N-(pyridazin-3-yl)acetamide hydrochloride], the viability at 48 h, 25 µM amounted to 118%. For `O=C(CCl)NC(c1ccccc1)C1CCCC1` (centres unmarked) [6-O18, 2-chloro-N-[cyclopentyl(phenyl)methyl]acetamide] the value was 8.29%. The value for `O=C(CCl)NC1CCCS(=O)(=O)c2ccccc21` (centres unmarked) [6-O19, 2-chloro-N-(1,1-dioxo-2,3,4,5-tetrahydro-1lambda6-benzothiepin-5-yl)acetamide] was 5.88%; that for `C[C@@H](NC(=O)CCl)c1ccccc1` [6-O20, 2-chloro-N-[(1R)-1-phenylethyl]acetamide] was 121%. In the case of `CCN(Cc1ccccc1)C(=O)CCl` [6-O21, N-benzyl-2-chloro-N-ethylacetamide], the viability at 48 h, 25 µM was 1.53%. For `COCc1ccc(CNC(=O)CCl)cc1` [6-O22, 2-chloro-N-{[4-(methoxymethyl)phenyl]methyl}acetamide] the value was 99.4%. For `CC(Cl)C(=O)N1CCNC(=O)C1Cc1nc2ccccc2o1` (centres unmarked) [6-P03, 3-[(1,3-benzoxazol-2-yl)methyl]-4-(2-chloropropanoyl)piperazin-2-one] the value was 110%. `COc1ccc(C2=NN(C(=O)CCl)C(c3cccc(F)c3)C2)cc1` (centres unmarked) [6-P04, 2-chloro-1-[5-(3-fluorophenyl)-3-(4-methoxyphenyl)-4,5-dihydro-1H-pyrazol-1-yl]ethan-1-one]: the viability at 48 h, 25 µM worked out at 0.182%.

In the case of `CC(Cl)C(=O)NCc1cnc(N2CCOCC2)s1` (centres unmarked) [6-P05, 2-chloro-N-{[2-(morpholin-4-yl)-1,3-thiazol-5-yl]methyl}propanamide], the viability at 48 h, 25 µM is 116%. The value for `CC(Cl)C(=O)NC(=O)NCc1ccccc1` (centres unmarked) [6-P06, 1-benzyl-3-(2-chloropropanoyl)urea] was 123%. The value for `CC(Cl)C(=O)NC(C)c1nc(-c2cccnc2)cs1` (centres unmarked) [6-P07, 2-chloro-N-{1-[4-(pyridin-3-yl)-1,3-thiazol-2-yl]ethyl}propanamide] was 115%; that for `CC(Cl)C(=O)Nc1ccc(F)c(F)c1` (centres unmarked) [6-P08, 2-chloro-N-(3,4-difluorophenyl)propanamide] was 101%. The value for `CC(Cl)C(=O)NC(C)C(c1ccccc1Cl)n1cccn1` (centres unmarked) [6-P09, 2-chloro-N-[1-(2-chlorophenyl)-1-(1H-pyrazol-1-yl)propan-2-yl]propanamide] was 119%; that for `COc1ccc(CNC(=O)C(C)Cl)cc1OC` (centres unmarked) [6-P10, 2-chloro-N-[(3,4-dimethoxyphenyl)methyl]propanamide] was 113%.

Regarding `CC(Cl)C(=O)N(Cc1cnn(C)c1)c1ccc(F)cc1` (centres unmarked) [6-P11, 2-chloro-N-(4-fluorophenyl)-N-[(1-methyl-1H-pyrazol-4-yl)methyl]propanamide], the viability at 48 h, 25 µM is 114%. For `CC(Cl)C(=O)NC(C)c1ccns1` (centres unmarked) [6-P12, 2-chloro-N-[1-(1,2-thiazol-5-yl)ethyl]propanamide] the value was 115%. For `CC(Cl)C(=O)NC(C)c1ncn(C)n1` (centres unmarked) [6-P13, 2-chloro-N-[1-(1-methyl-1H-1,2,4-triazol-3-yl)ethyl]propanamide] the value was 112%; for `CC(Cl)C(=O)N[C@@H]1CCc2c(C#N)cccc21` (stereo partly drawn) [6-P14, 2-chloro-N-[(1R)-4-cyano-2,3-dihydro-1H-inden-1-yl]propanamide], 114%.

In the case of `CC(Cl)C(=O)Nc1ccc2c(c1)ncn2CCN(C)C` (centres unmarked) [6-P15, 2-chloro-N-{1-[2-(dimethylamino)ethyl]-1H-1,3-benzodiazol-5-yl}propanamide], the viability at 48 h, 25 µM was 113%. The value for `CC(Cl)C(=O)N1CCN(C(c2ccccc2)C(F)(F)F)CC1` (centres unmarked) [6-P16, 2-chloro-1-[4-(2,2,2-trifluoro-1-phenylethyl)piperazin-1-yl]propan-1-one] was 114%; that for `CC(Cl)C(=O)N1CCN(Cc2cc(=O)n3ccsc3n2)CC1` (centres unmarked) [6-P17, 7-{[4-(2-chloropropanoyl)piperazin-1-yl]methyl}-5H-[1,3]thiazolo[3,2-a]pyrimidin-5-one] was 113%.

What is called viability is a read-out of living cells in per cent, often relative to untreated cells.
